Here are results for 3 compounds from ChEMBL document CHEMBL1131964, “Preparation and receptor binding affinities of cyclic C-terminal neurotensin (8-13) and (9-13) analogues” (Bioorg Med Chem Lett, 1999).

The structures appear in SMILES notation.

The target of the experiment is Neurotensin receptor (Homo sapiens, UniProt O95665+P30989). As to the kind of experiment: Binding ability to compete with [125I]Tyr3-NT (0.15 nM) for human NT receptors cloned in CHO cells. The experiment is classed as cell-based.
With `CC[C@@H](C)[C@@H](NC(=O)[C@@H]1Cc2ccc(cc2)OCCCCCC(=O)N[C@H](CCCN=C(N)N)C(=O)N2CCC[C@H]2C(=O)N1)C(=O)N[C@@H](CC(C)C)C(=O)O`, the Ki turned out to be 450 nM. With `CC[C@@H](C)[C@@H](NC(=O)[C@@H]1Cc2ccc(cc2)OCCCCCC(=O)N2CCC[C@H]2C(=O)N1)C(=O)N[C@@H](CC(C)C)C(=O)O` the figure was greater than 2000 nM; with `CC[C@H](C)[C@H](NC(=O)[C@H](Cc1ccc(O)cc1)NC(=O)[C@@H]1CCCN1C(=O)[C@@H](N)CCCN=C(N)N)C(=O)N[C@@H](CC(C)C)C(=O)O`, 28 nM.
